What was measured:
Assay in all cases: Greenhouse herbicidal action, post-emergence
Format in all cases: in vivo
Abutilon theophrasti = test system: Abutilon theophrasti
Description: (§1) The seeds of the test plants were sown separately for each species. For the post-emergence treatment, the test plants were first grown to a height of from 3 to 15 cm, depending on the plant habit, and only then treated with the active compounds which had been suspended or emulsified in water. The test plants were for this purpose either sown directly and grown in the same containers, or they were first grown separately as seedlings and transplanted into the test containers a few days prior to treatment. […] (active substance). Depending on the species, the plants were kept at 10-25° C. or 20-35° C. The test period extended over from 2 to 4 weeks. During this time, the plants were tended, and their response to the individual treatments was evaluated. Evaluation was carried out using a scale from 0 to 100. 100 means no emergence of the plants, or complete destruction of at least the aerial parts and 0 means no damage, or normal course of growth. The plants used in the greenhouse experiments were of the following species: [table]

Setaria italica = test system: Setaria italica
Description: as §1

Sinapis alba = test system: Sinapis alba
Description: as §1

Chenopodium album = conditions: 1.0 kg of a.s./ha
Description: as §1

**Q.** How did the “control of Abutilon theophrasti” value (Abutilon theophrasti; 1.91 kg of a.s./ha) turn out when `CNC(=O)[C@H](Cc1ccccc1C)NC(=O)c1ccc(Cl)c(C(F)F)c1Cl` [Compound I-49] was run?
**A.** The value was “very good control”.

**Q.** And the “control of Abutilon theophrasti” value (Abutilon theophrasti; 3.0 kg of a.s./ha)?
**A.** The value was “very good control”.

**Q.** What about the “control of Setaria italica” value (Setaria italica; 1.91 kg of a.s./ha) of the same compound?
**A.** The value was “very good control”.

**Q.** And the “control of Setaria italica” value (Setaria italica; 3.0 kg of a.s./ha)?
**A.** Its value is “very good control”.

**Q.** What about the “control of Sinapis alba” value (Sinapis alba; 1.91 kg of a.s./ha) of the same compound?
**A.** The value was “very good control”.

**Q.** And the “control of Sinapis alba” value (Sinapis alba; 3.0 kg of a.s./ha)?
**A.** Its value is “very good control”.

**Q.** Which “control of Abutilon theophrasti” value (Abutilon theophrasti; 0.5 kg of a.s./ha) does the source give for `CNC(=O)[C@H](Cc1ccccc1C)NC(=O)c1cccc(F)c1C(F)(F)F` [Compound I-53] here?
**A.** The value was “very good control”.

**Q.** What about the “control of Setaria italica” value (Setaria italica; 0.5 kg of a.s./ha) of the same compound?
**A.** The value was “very good control”.

**Q.** And the “control of Sinapis alba” value (Sinapis alba; 0.5 kg of a.s./ha)?
**A.** Its value is “very good control”.

**Q.** How did the “control of Abutilon theophrasti” value (Abutilon theophrasti; 0.5 kg of a.s./ha) turn out when `CNC(=O)[C@H](Cc1ccccc1C)NC(=O)c1ccccc1C(F)(F)F` [Compound I-19] was run?
**A.** The value was “very good control”.

**Q.** And the “control of Setaria italica” value (Setaria italica; 0.5 kg of a.s./ha)?
**A.** The value was “very good control”.

**Q.** `CNC(=O)[C@H](Cc1ccccc1C)NC(=O)c1ccc(F)cc1C(F)(F)F` [Compound I-51] was tested. Which “control of Abutilon theophrasti” value (Abutilon theophrasti; 1.0 kg of a.s./ha) did it give?
**A.** Its value is “very good control”.

**Q.** What about the “control of Chenopodium album” value (Chenopodium album) of the same compound?
**A.** The value was “very good control”.

**Q.** How did the “control of Abutilon theophrasti” value (Abutilon theophrasti; 1.0 kg of a.s./ha) turn out when `CNC(=O)C(Cc1ccccc1C)NC(=O)c1ccccc1S(C)(=O)=O` (stereo not drawn) [II-111] was run?
**A.** The value was “very good control”.

**Q.** What about the “control of Setaria italica” value (Setaria italica; 1.0 kg of a.s./ha) of the same compound?
**A.** Its value is “very good control”.

**Q.** And the “control of Sinapis alba” value (Sinapis alba; 1.0 kg of a.s./ha)?
**A.** Its value is “very good control”.

**Q.** With `CNC(=O)[C@H](Cc1cccc(F)c1)NC(=O)c1cc(F)ccc1C(F)(F)F` [Compound I-25] as the compound, how does the “control of Abutilon theophrasti” value (Abutilon theophrasti; 0.5 kg of a.s./ha) read?
**A.** Its value is “very good control”.

**Q.** What about the “control of Setaria italica” value (Setaria italica; 0.5 kg of a.s./ha) of the same compound?
**A.** Its value is “very good control”.

**Q.** What about the “control of Sinapis alba” value (Sinapis alba; 0.5 kg of a.s./ha) of the same compound?
**A.** Its value is “very good control”.

**Q.** How did the “control of Abutilon theophrasti” value (Abutilon theophrasti; 0.5 kg of a.s./ha) turn out when `CNC(=O)[C@H](Cc1cccc(F)c1)NC(=O)c1cccc(F)c1C(F)(F)F` [Compound I-24] was run?
**A.** Its value is “very good control”.

**Q.** What about the “control of Sinapis alba” value (Sinapis alba; 0.5 kg of a.s./ha) of the same compound?
**A.** The value was “very good control”.

**Q.** With `CNC(=O)C(Cc1ccccc1)NC(=O)c1ccc(F)cc1C(F)(F)F` (stereo not drawn) [II-91] as the compound, how does the “control of Abutilon theophrasti” value (Abutilon theophrasti; 2.0 kg of a.s./ha) read?
**A.** The value was “very good control”.

**Q.** What about the “control of Sinapis alba” value (Sinapis alba; 2.0 kg of a.s./ha) of the same compound?
**A.** Its value is “very good control”.

**Q.** What does the source list for `CNC(=O)C(NC(=O)c1ccc(F)cc1C(F)(F)F)C(C)c1ccccc1F` (stereo not drawn) [II-7]?
**A.** control of Abutilon theophrasti (Abutilon theophrasti; 1.0 kg of a.s./ha): very good control; control of Chenopodium album (Chenopodium album): very good control

**Q.** Which “control of Setaria italica” value (Setaria italica; 0.095 kg of a.s./ha) does the source give for `CNC(=O)C(NC(=O)c1ccccc1C(F)(F)F)C(C)c1ccccc1F` (single isomer, unassigned) [Compound I-32] here?
**A.** Its value is “very good control”.

**Q.** And the “control of Sinapis alba” value (Sinapis alba; 0.095 kg of a.s./ha)?
**A.** Its value is “very good control”.

**Q.** For “Nα-(2-trifluoromethyl-4-fluorobenzoyl)-2-(1-methyl-1-(2-fluorophenyl))glycine-N-methylamide [II-15]”, which “control of Abutilon theophrasti” value (Abutilon theophrasti; 0.5 kg of a.s./ha) is on record?
**A.** Its value is “very good control”.

**Q.** And the “control of Setaria italica” value (Setaria italica; 0.5 kg of a.s./ha)?
**A.** The value was “very good control”.

**Q.** What about the “control of Sinapis alba” value (Sinapis alba; 0.5 kg of a.s./ha) of the same compound?
**A.** The value was “very good control”.
